Measurements taken from patent US9695155B2, “Herbicidal substituted pyrimidinyloxy benzene compounds” (E. I. DU PONT DE NEMOURS AND COMPANY, priority 2013, dated 2017).

Key:
[1] = test system: sedge, umbrella; assay: Test C flooded paddy test; type: in vivo, Cyperus difformis; settings: Flood, scale 0 to 100 (0 no effect, 100 complete control), 13 to 15 days
In short: (§1)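 Under a constant 3 cm flood, test compounds went directly into the paddy water. Following 13 to 15 days of greenhouse growth, treated species and controls were compared by eye.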

[2] = test system: ducksalad; assay: Test C flooded paddy test; type: in vivo, Heteranthera limosa; settings: Flood, scale 0 to 100 (0 no effect, 100 complete control), 13 to 15 days
In short: as §1

[3] = test system: corn; assay: Test E postemergence; type: in vivo, Zea mays; settings: Zea mays, post-emergence
From the text: (§2) Seeds of plant species selected from corn (Zea mays), soybean (Glycine max), velvetleaf (Abutilon theophrasti), lambsquarters (Chenopodium album), wild poinsettia (Euphorbia heterophylla), palmer pigweed (Amaranthus palmeri), waterhemp (common waterhemp, Amaranthus rudis), surinam grass (Brachiaria decumbens), large (Lg) crabgrass (Digitaria sanguinalis), Brazilian crabgrass (Digitaria horizontalis), fall panicum (Panicum dichotomiflorum), giant foxtail (Setaria faberii), green foxtail (Setaria viridis), goosegrass (Eleusine indica), johnsongrass (Sorghum halepense), ragweed (common ragweed, Ambrosia elatior), barnyardgrass (Echinochloa crus-galli), sandbur (southern sandbur, Cenchrus echinatus), arrowleaf sida (Sida rhombifolia), Italian ryegrass (Lolium multiflorum), dayflower (Virginia (VA) dayflower, Commelina virginica), field bindweed (Convolvulus arvensis), morningglory (Ipomoea coccinea), nightshade (eastern black nightshade, Solanum ptycanthum), kochia (Kochia scoparia), yellow nutsedge (Cyperus esculentus), cocklebur (common cocklebur, Xanthium strumarium), smartweed (ladysthumb smartweed, and hairy beggarticks (Bidens pilosa), were planted into a silt loam soil and treated preemergence with test chemicals formulated in a non-phytotoxic solvent mixture which included a surfactant.
(§3) At the same time, plants from these crop and weed species and also horseweed (Canada horseweed, Conyza canadensis), waterhemp_RES1, (ALS & Triazine resistant common waterhemp, Amaranthus rudis), and waterhemp_RES2, (ALS & HPPD resistant common waterhemp, Amaranthus rudis) were planted in pots containing Redi-Earth® planting medium (Scotts Company, 14111 Scottslawn Road, Marysville, Ohio 43041) comprising spaghnum peat moss, vermiculite, wetting agent and starter nutrients were treated with postemergence applications of test chemicals formulated in the same manner. Plants ranged in height from 2 to 18 cm for postemergence treatments (1- to 4-leaf stage). Treated plants and controls were maintained in a greenhouse for 14 to 21 days, after which time all species were compared to controls and visually evaluated. Plant response ratings, summarized in Table E, are based on a scale of 0 to 100 where 0 is no effect and 100 is complete control. A dash (-) response means no test result.

[4] = test system: palmer pigweed; assay: Test E postemergence; type: in vivo, Amaranthus palmeri; settings: post-emergence, read-out: Plant response rating, Pigweed, Palmer
From the text: as §2, §3

[5] = test system: Brazilian crabgrass; assay: Test E postemergence; type: in vivo, Digitaria horizontalis; settings: Digitaria horizontalis, post-emergence, read-out: Plant response rating, Crabgrass, Brazil
From the text: as §2, §3

[6] = test system: barnyardgrass; assay: Test E postemergence; type: in vivo, Echinochloa crus-galli; settings: Echinochloa crus-galli, post-emergence, read-out: Plant response rating, Barnyardgrass
From the text: as §2, §3

[7] = test system: Italian ryegrass; assay: Test E postemergence; type: in vivo, Lolium multiflorum; settings: Lolium multiflorum, post-emergence, read-out: Plant response rating, Ryegrass, Italian
From the text: as §2, §3

[8] = Postemergence, 31 g ai/ha, scale 0 to 100
[9] = Postemergence, 62 g ai/ha, scale 0 to 100
[10] = Postemergence, 125 g ai/ha, scale 0 to 100
[11] = Postemergence, 250 g ai/ha, scale 0 to 100
[12] = postemergence, 16 g ai/ha, scale 0 to 100, 0 no effect, 100 complete control

FC(F)c1cnn(-c2ccccc2Oc2ncc(Cl)cn2)c1 [Compound 80, 5-chloro-2-[2-[4-(difluoromethyl)-1H-pyrazol-1-yl]phenoxy]pyrimidine]
Plant response rating, Sedge, Umbrella ([1]; 250 g ai/ha): 0
Plant response rating, Sedge, Umbrella ([1]; 500 g ai/ha): 0
Plant response rating, Sedge, Umbrella ([1]; 1000 g ai/ha): 60
Plant response rating, Sedge, Umbrella ([1]; 2000 g ai/ha): 85
Plant response rating, Ducksalad ([2]; 250 g ai/ha): 50
Plant response rating, Ducksalad ([2]; 500 g ai/ha): 75
Plant response rating, Ducksalad ([2]; 1000 g ai/ha): 80
Plant response rating, Ducksalad ([2]; 2000 g ai/ha): 80

Clc1cnn(-c2ccccc2Oc2ncc(Br)cn2)c1 [Compound 5, 5-bromo-2-[2-(4-chloro-1H-pyrazol-1-yl)phenoxy]pyrimidine]
corn plant response (injury) rating, 0-100 at 31 g/ha [3, 8]: 0%
corn plant response (injury) rating, 0-100 at 62 g/ha [3, 9]: 0%
corn plant response (injury) rating, 0-100 at 125 g/ha [3, 10]: 0%
corn plant response (injury) rating, 0-100 at 250 g/ha [3, 11]: 0%
corn plant response (injury) rating, 0-100 at 16 g/ha [3, 12]: 0%
pest or weed control at 31 g/ha [4, 8]: 75%
pest or weed control at 62 g/ha [4, 9]: 85%
pest or weed control at 125 g/ha [4, 10]: 95%
pest or weed control at 250 g/ha [4, 11]: 98%
pest or weed control at 16 g/ha [4, 12]: 60%
pest or weed control at 31 g/ha [5, 8]: 5%
pest or weed control at 62 g/ha [5, 9]: 10%
pest or weed control at 125 g/ha [5, 10]: 10%
pest or weed control at 250 g/ha [5, 11]: 20%
pest or weed control at 16 g/ha [5, 12]: 0%
pest or weed control at 31 g/ha [6, 8]: 0%
pest or weed control at 62 g/ha [6, 9]: 0%
pest or weed control at 125 g/ha [6, 10]: 0%
pest or weed control at 250 g/ha [6, 11]: 10%
pest or weed control at 16 g/ha [6, 12]: 0%
pest or weed control at 31 g/ha [7, 8]: 0%
pest or weed control at 62 g/ha [7, 9]: 0%
pest or weed control at 125 g/ha [7, 10]: 0%
pest or weed control at 250 g/ha [7, 11]: 0%
pest or weed control at 16 g/ha [7, 12]: 0%

Fc1cccc(Oc2ncc(Cl)cn2)c1-n1cc(C(F)F)nn1 [Compound 141, 5-chloro-2-[2-[4-(difluoromethyl)-1H-1,2,3-triazol-1-yl]-3-fluorophenoxy]pyrimidine]
Plant response rating, Sedge, Umbrella ([1]; 31 g ai/ha): 0
Plant response rating, Sedge, Umbrella ([1]; 62 g ai/ha): 40
Plant response rating, Sedge, Umbrella ([1]; 125 g ai/ha): 75
Plant response rating, Sedge, Umbrella ([1]; 250 g ai/ha): 100
Plant response rating, Ducksalad ([2]; 31 g ai/ha): 65
Plant response rating, Ducksalad ([2]; 62 g ai/ha): 80
Plant response rating, Ducksalad ([2]; 125 g ai/ha): 95
Plant response rating, Ducksalad ([2]; 250 g ai/ha): 100
